One assay deals with lung cancer cell lines. Nature of the assay: Cell proliferation of lung cancer cell lines. The format is cell-based. As for the experimental part: FIG. 7V illustrates cell proliferation (lung cancer cells and normal cells) affected by the treatment with elvitegravir. Error bars show mean±s.e.m. (n=3).
After 6 days [or other time period as indicated] culture, cell viability was measured using CellTiter-Glo® Luminescent Cell Viability Assay (Promega, G7572) and DMSO group was used as normalization to calculate half maximal inhibitory concentration (IC50) using Graphpad Prism software.

In assay [1] the test system is SRC-1. Nature of the assay: Biolayer interferometry (BLI). The format is binding. The following applies: biotin labeled EVG on streptavidin biosensors, purified SRC-1 protein. The procedure: FIG. 7R illustrates bio-layer interferometry (BLI) assays were performed with purified SRC-1 protein and EVG. Biotin labeled EVG was immobilized on the streptavidin biosensors and dipped into wells containing increasing concentrations of SRC-1 protein.
The binding between EVG and SRC1 was examined using BLI Octet RED96 (ForteEio Inc., Menlo Park, CA). Streptavidin biosensors (ForteBio Inc.) were pre-soaked (30 min) in assay buffer (20 mM TrisHCl pH8.0, 150 mM NaCl and 1% DMSO), then coated in an assay buffer containing 100 uM EVG-biotin for 7 min. As a control, sensors were incubated in an assay buffer containing 100 uM Biocytin, followed by a 6 min wash with assay buffer containing 1% BSA and 0.1% Tween20. Indicated concentrations of truncated SRC1protein ([…], 0 μg/ml) were diluted in assay buffer containing 1% BSA/0.1% Tween20 and flowed through biosensors coated with Bio-EVG or biocytin for 5 min. A 5 min dissociation was followed. Data was analyzed using OctetRED analysis software.
(Biolayer interferometry detects binding as a change in optical thickness at a sensor tip.)

A further assay has as its system H3K27ac. Put plainly: Immunofluorescence of H3K27ac at TEAD puncta in H1299 cells. The format is cell-based. The following applies: H1299 cells co-expressing YAP5SA, TEAD4-mTagBFP, mNeoGreen-SRC1; 20 μM. The procedure: FIG. 7 M illustrates immunofluorescence staining with anti-H3K27ac (red,top) and anti-RNA pol II-S5P (red, bottom) in H1299 cells co-expressing YAP5SA, TEAD4-mTagBFP(blue) and mNeoGreen-SRC1(green) treated with 20 μM EVG. EVG impaired the SRC-1 LLPS. Transcription active markerH3K27ac and active RNA polymerase II phosphorylated at Ser 5 of CTD were not enriched in SRC-1 condensates. Scale bar, 5 μm.
Cells were fixed with 4% PFA for 15 minutes at room temperature. Cells were subsequently washed with PBS (3×3 min) and blocked in PBS/BSA (3%)/Triton X-100 (0.3%) at room temperature for 60 minutes. Cells were rinsed in PBS and incubated with anti-H3K27ac (ab4729, Abcam, 1:100), anti-RNA Pol II-S5P antibody (#04-1572, Millipore, 1:200) in PBS/BSA (1%) overnight at 4° C. Cells were washed with PBST (1×PBS+Tween20 0.2%, 3×5 min) and incubated with the secondary antibody for 1 hours at room temperature. After washing with PBST(3×5 min), cells were stained with DAPI.

Assay [2] deals with SRC-1. Put plainly: Biotin-EVG competition pulldown and thermal shift assays. In kind it is binding. To be noted: Flag-SRC-1, biotin-EVG, increasing concentrations of EVG. The procedure: FIG. 7T illustrates the lysates from SF268 cells overexpressing Flag-SRC-1 were incubated with 20 μM biotin or biotin-EVG for streptavidin-beads pull-down assays.
FIG. 7U illustrates purified Flag-SRC1 protein was incubated with EVG-Biotin in the presence of increasing concentrations of EVG and further subjected to streptavidin-beads pull-down assays.
1 μg of purified recombinant protein Flag-SRC-1 was incubated with […] biotin-EVG/DMSO in the presence of increasing concentrations of Elvitegravir (20, 40, 100, 200 uM) for 30 min (RT) and was further incubated with streptavidin-agarose (20359, Thermo Fisher Scientific) for 20 min (RT). Washing beads with PBS (3×1.5 min). The precipitates were analyzed by western blot with anti-flag antibody.
Methods: Cells (SF268 cells and HEK293FT cells were transfected with expression vector of Flag-SRC-1) were harvested and lysed in lysis buffer (20 mM TrisHCl 7.5, 150 mM NaCl, 0.5% NP40, 5% glycerin, 1% proteinase Cocktail), and then incubated with 20 µM compound with biotin tag or DMSO for 40 min at room temperature. Then incubated with 100 μL streptavidin-agarose (20359, Thermo Fisher Scientific) for 30 min at RT. The beads were washed 4 times with lysis buffer ([…] 1.5 min). And the precipitates were analyzed by western blot with anti-flag antibody. […]

One compound from US20240125768A1, “METHODS FOR MODULATING A SRC-1 CONDENSATE” (ETERN BIOPHARMA (SHANGHAI) CO., LTD., priority 2021, published 2024) can be followed below.

In the case of `COc1cc2c(cc1Cc1cccc(Cl)c1F)c(=O)c(C(=O)O)cn2[C@H](CO)C(C)C` [EVG, 6-[(3-chloro-2-fluorophenyl)methyl]-1-[(2S)-1-hydroxy-3-methylbutan-2-yl]-7-methoxy-4-oxoquinoline-3-carboxylic acid], the “proliferation of lung cancer cell lines” value with lung cancer cell lines is “effectively inhibited”. The “binding to SRC-1 (BLI)” value in the assay on SRC-1 [1] is “directly binds”. In the assay with H3K27ac, the “enrichment of H3K27ac at TEAD puncta” value is given as “inhibited the enrichment”. Besides, the “binding to SRC-1, competition pulldown and thermal shift” value in the assay on SRC-1 [2] is “both direct and specific”.
